Where a name gives a salt, the structure may show the parent alone.
System: 5HT uptake
Assay: Inhibition of 5HT uptake in vitro (synaptosomal uptake of 3H-serotonin, rat cerebral cortex)
Assay type: biochemical, Sprague-Dawley rat
Conditions: rat cortical synaptosomes, 37° C., 5 min, 50 nM 3H-5HT; tested as oxalate salt; read-out: IC50 5HT (concentration needed to inhibit 50% of serotonin uptake)
Procedure: This general procedure is set forth by Wong et al., in Drug Development Research 6:397-403 (1985).
Male Sprague-Dawley rats (110-150 g) from Harlan Industries (Cumberland, Ind.) were fed Purina Chow ad libitum for at least 3 days before being used in the studies. Rats were killed by decapitation. Whole brains were removed and dissected. Cerebral cortex was homogenized in 9 volumes of a medium containing 0.32 M sucrose and 10 mM glucose. Crude synaptosomal preparations were isolated after differential centrifugation at 1,000 g for 10 min. and 17,000 g for 28 min. The final pellets were suspended in the same medium and kept in ice until use within the same day.
Synaptosomal uptake of ^3 H-serotonin(^3 H-5-hydroxytryptamine, ^3 H-5HT) was determined as follows. Cortical synaptosomes (equivalent to 1 mg of protein) were incubated at 37° C. for 5 min in 1 ml of Krebsbicarbonate medium containing also 10 mM glucose, 0.1 mM iproniazid, 1 mM ascorbic acid, 0.17 mM EDTA and 50 nM ^3 H-5HT. The reaction mixture was immediately diluted with 2 ml of ice-chilled Krebs-bicarbonatebuffer and filtered under vacuum with a cell harvester (Brandel, Gaithersburg, Md). Filters were rinsed twice with approximately 5 ml of ice-chilled 0.9% saline and were transferred to a counting vial containing 10 ml of scintillation fluid (PCS, Amersham, Arlington Heights, Il). Radioactivity was measured by a liquid scintillation spectrophotometer. Accumulation of ^3 H-5HT at 4° C. represented the background and was subtracted from all samples.
The numbers in parentheses represent percent inhibition at 1000 nM.

Row | Structure (SMILES) | IC50
1 | NC(CCCc1cccc2ccccc12)c1ccccc1 (stereo not shown) [Example 1, 1-Phenyl-4-(1-napthalenyl)butylaminium oxalate] | 240 nM
2 | CNC(CCCc1cccc2ccccc12)c1ccccc1 (stereo not shown) [Example 3, N-Methyl-1-phenyl-4-(1-naphthalenyl)butyl-aminium oxalate] | 70 nM
3 | CN(C)C(CCCc1cccc2ccccc12)c1ccccc1 (stereo not shown) [Example 2, N,N-Dimethyl-1-phenyl-4-(1-naphthalenyl)butylaminium oxalate] | 30 nM
4 | CN(C)C(CCc1cccc2ccccc12)c1ccccc1 (stereo not shown) [Example 4, N,N-Dimethyl-1-phenyl-3-(1-naphthalenyl)propylaminium oxalate] | 240 nM

From patent US4876282A, “1-Phenylalkylamines as selective serotonin uptake inhibitors” (Eli Lilly and Company, priority 1987, dated 1989)
